The subject of the assay is human adult PBMCs. The assay can be described thus: TNF production by ELISA after stimulation of human adult PBMCs. It counts as cell-based. Conditions: adult PBMCs, 33 μM, 18 hours; for TNF (Median): ELISA, unit not given (FIG. 6B/7B legends: TNF concentration in ng/ml); for TNF (Median) / TNF % (Median): N=3-5; for Activity class: class according to TNF % as compared to R848; for TNF % (Median): median percentage TNF production as compared to R848. Here is the method: Table 1. Activity of Exemplary Imidazopyrimidine Compounds on Stimulating TNF Production in PBMCs as Compared to Compound R848 Table 1 provides the activity of exemplary compounds on stimulating TNF production in PBMCs as compared to the benchmark compound R848. Specifically, TNF production was measured by ELISA after stimulation of adult PBMCs with compound 037 analog family or the compound R848 at 33 μM for 18 hours. Analogs are ranked top to bottom by median percentage TNF production (TNF %) as compared to R848 (N=3-5). The compounds have been classified in the following categories according to TNF %: high activity—class A: TNF %>15%; medium activity—class B: 1%<TNF %≤15%; low activity—class C: TNF %≤1%.
ELISAs and Multiplex-Analyte Assays. Supernatants derived from human PBMCs and DC stimulations were assayed by ELISA for TNF (ThermoFisher Scientific; Waltham, Mass., USA). Cytokine and chemokine expression profiles (e.g., IFNγ, IL-9, IL-10, IL-12 (p70), IL-13, IL-1β, IL-23, IL-27, IL-28A, IL-33, IL-6, MIP-3α/CCL20, and TNF) in cell culture supernatants were measured using a customized Milliplex® Human Th17 Magnetic Bead Panel according to the manufacturer's instructions (Millipore, Chicago, Ill., USA). Assays were read and analyzed on the Luminex® 100/200™ System and xPOTENT® software (Luminex, Austin, Tex.). A minimum threshold was set at the minimum detectable concentration for each individual assay, defined as three standard deviations above the mean background.
PBMCs were isolated from blood using a Ficoll density gradient. PBMCs either used fresh or were stored at 5×10^7 cells per vial in 1 mL RPMI containing 20% autologous plasma and 10% DMSO at −80° C. until use. Stimulation plates were prepared by transferring 0.66 μl of DMSO-dissolved compounds (10 mM) to each well of a round bottom 96-well plate. PBMCs isolated from human adult donors were resuspended at a concentration of 10^5 cells/200 μl of RPMI supplemented with 10% of platelet-poor plasma. 200 μl of the cell suspension were transferred to each well resulting in a final compound concentration of […]. After about 18 hours of incubation (37° C., 5% CO2), plates were spun down (500×g, room temperature, 5 minutes) and supernatants were harvested for further analysis.

The structures appear in SMILES notation.

As to `Cc1ccc(-c2cn3cccnc3n2)cc1NC(=O)c1ccccc1Br` [Example 37.16], the “TNF (Median)” value is 3.5625, the Activity class result is listed as “A (high activity—class A: TNF %>15%)” and the “TNF % (Median)” value came to 90.17%.

Regarding `Cc1ccc(-c2cn3cccnc3n2)cc1NC(=O)c1ccccc1C` [Example 37.17], the “TNF (Median)” value was 0.865, the Activity class entry is recorded as “A (high activity—class A: TNF %>15%)” and the “TNF % (Median)” value was 20.64%.

Take `Cc1ccc(-c2cn3cccnc3n2)cc1NC(=O)c1ccccc1Cl` [Example 37.33]: the “TNF (Median)” value worked out at 0.288, the Activity class entry is “A (high activity—class A: TNF %>15%)” and the “TNF % (Median)” value worked out at 22.94%.

In the case of `Cc1ccc(-c2cn3cccnc3n2)cc1NC(=O)c1ccccc1C(F)(F)F` [Example 37.37], the “TNF (Median)” value is listed as 3.73, the Activity class entry was “A (high activity—class A: TNF %>15%)” and the “TNF % (Median)” value is on record as 71.12%.

With `Cc1ccc(-c2cn3cccnc3n2)cc1NC(=O)Cc1ccccc1` [FRF-02-103], the “TNF (Median)” value was 0.008, the Activity class result is “C (low activity—class C: TNF %≤1%)” and the “TNF % (Median)” value amounted to 0.18%.

With `Cc1ccc(-c2cn3cc(F)cnc3n2)cc1NC(=O)c1ccccc1Cl` [FRF-02-115], the “TNF (Median)” value is on record as 0.0625, the Activity class entry is “B (medium activity—class B: 1%<TNF %≤15%)” and the “TNF % (Median)” value is 2.42%.

Take `Cc1ccc(-c2cn3cc(F)cnc3n2)cc1NC(=O)c1ccccc1Br` [FRF-02-116]: the “TNF (Median)” value is 0.594, the Activity class result is listed as “B (medium activity—class B: 1%<TNF %≤15%)” and the “TNF % (Median)” value worked out at 8.48%.

`Cc1ccc(-c2cn3cc(F)cnc3n2)cc1NC(=O)c1ccccc1C` [FRF-02-117]: the “TNF (Median)” value amounted to 0.138, the Activity class result was “B (medium activity—class B: 1%<TNF %≤15%)” and the “TNF % (Median)” value amounted to 3.06%.

As to `Cc1ccc(-c2cn3cc(F)cnc3n2)cc1NC(=O)c1ccccc1C(F)(F)F` [FRF-02-118], the “TNF (Median)” value is 1.8795, the Activity class result is “A (high activity—class A: TNF %>15%)” and the “TNF % (Median)” value was 43.53%.

`CCC(C(=O)Nc1cc(-c2cn3cc(F)cnc3n2)ccc1C)c1ccccc1` (stereo not drawn) [FRF-02-119, N-(5-(6-Fluoroimidazo[1,2-a]pyrimidin-2-yl)-2-methylphenyl)-2-phenylbutanamide]: the “TNF (Median)” value is 0.219, the Activity class entry is recorded as “B (medium activity—class B: 1%<TNF %≤15%)” and the “TNF % (Median)” value worked out at 4.35%.

For the molecule `COc1cnc2nc(-c3ccc(C)c(NC(=O)c4ccccc4Cl)c3)cn2c1` [FRF-02-131], the “TNF (Median)” value is 0.008, the Activity class entry is “C (low activity—class C: TNF %≤1%)” and the “TNF % (Median)” value is listed as 0.18%.

With `COc1cnc2nc(-c3ccc(C)c(NC(=O)c4ccccc4Br)c3)cn2c1` [FRF-02-132], the “TNF (Median)” value amounted to 0.008, the Activity class result was “C (low activity—class C: TNF %≤1%)” and the “TNF % (Median)” value is recorded as 0.18%.

Take `COc1cnc2nc(-c3ccc(C)c(NC(=O)c4ccccc4C)c3)cn2c1` [FRF-02-134]: the “TNF (Median)” value was 0.008, the Activity class entry is “C (low activity—class C: TNF %≤1%)” and the “TNF % (Median)” value is 0.18%.

As to `COc1cnc2nc(-c3ccc(C)c(NC(=O)c4ccccc4C(F)(F)F)c3)cn2c1` [FRF-02-135], the “TNF (Median)” value turned out to be 0.0705, the Activity class entry is “B (medium activity—class B: 1%<TNF %≤15%)” and the “TNF % (Median)” value came to 1.60%.

For the molecule `CCC(C(=O)Nc1cc(-c2cn3cc(OC)cnc3n2)ccc1C)c1ccccc1` (stereo not drawn) [FRF-02-137], the “TNF (Median)” value stood at 0.04, the Activity class entry is reported as “B (medium activity—class B: 1%<TNF %≤15%)” and the “TNF % (Median)” value stood at 1.27%.

`CCC(C(=O)Nc1cc(-c2cn3cc(C)cnc3n2)ccc1C)c1ccccc1` (stereo not drawn) [FRF-02-144-1, N-(2-Methyl-5-(6-methylimidazo[1,2-a]pyrimidin-2-yl)phenyl)-2-phenylbutanamide]: the “TNF (Median)” value was 3.144, the Activity class entry is on record as “A (high activity—class A: TNF %>15%)” and the “TNF % (Median)” value is 55.24%.

Regarding `Cc1cnc2nc(-c3ccc(C)c(NC(=O)c4ccccc4Cl)c3)cn2c1` [FRF-02-144-2], the “TNF (Median)” value is on record as 2.5245, the Activity class entry is “A (high activity—class A: TNF %>15%)” and the “TNF % (Median)” value was 104.32%.

`Cc1cnc2nc(-c3ccc(C)c(NC(=O)Cc4ccccc4)c3)cn2c1` [FRF-02-162-1]: the “TNF (Median)” value was 0.008, the Activity class result is given as “C (low activity—class C: TNF %≤1%)” and the “TNF % (Median)” value was found to be 0.42%.

On to `Cc1cnc2nc(-c3ccc(C)c(NC(=O)c4ccccc4C)c3)cn2c1` [FRF-02-162-2], for which the “TNF (Median)” value is on record as 0.309, the Activity class result was “B (medium activity—class B: 1%<TNF %≤15%)” and the “TNF % (Median)” value worked out at 6.34%.

On to `Cc1ccc(-c2cn3cc(F)cnc3n2)cc1NC(=O)c1cc(F)ccc1C(F)(F)F` [FRF-02-166], for which the “TNF (Median)” value was determined as 2.0745, the Activity class result was “A (high activity—class A: TNF %>15%)” and the “TNF % (Median)” value was determined as 53.91%.

For the molecule `Cc1ccc(-c2cn3cc(F)cnc3n2)cc1NC(=O)c1ccc(F)cc1C(F)(F)F` [FRF-02-167], the “TNF (Median)” value turned out to be 1.101, the Activity class result is on record as “A (high activity—class A: TNF %>15%)” and the “TNF % (Median)” value is given as 51.62%.

Take `Cc1ccc(-c2cn3cc(F)cnc3n2)cc1NC(=O)c1ccc(Cl)cc1C(F)(F)F` [FRF-02-169]: the “TNF (Median)” value is reported as 0.008, the Activity class entry was “C (low activity—class C: TNF %≤1%)” and the “TNF % (Median)” value worked out at 0.18%.

As to `Cc1ccc(C(=O)Nc2cc(-c3cn4cc(F)cnc4n3)ccc2C)c(C(F)(F)F)c1` [FRF-02-171], the “TNF (Median)” value amounted to 2.1615, the Activity class entry is recorded as “A (high activity—class A: TNF %>15%)” and the “TNF % (Median)” value is listed as 65.93%.

For `CCC(C(=O)Nc1cc(-c2cn3cc(C)cnc3n2)ccc1Cl)c1ccccc1` (stereo not drawn) [FRF-02-174-1], the “TNF (Median)” value is reported as 0.924, the Activity class entry is “A (high activity—class A: TNF %>15%)” and the “TNF % (Median)” value amounted to 35.71%.

On to `Cc1cnc2nc(-c3ccc(Cl)c(NC(=O)c4ccccc4C(F)(F)F)c3)cn2c1` [FRF-02-174-2], for which the “TNF (Median)” value is listed as 0.1455, the Activity class result is reported as “B (medium activity—class B: 1%<TNF %≤15%)” and the “TNF % (Median)” value stood at 13.99%.

With `Cc1ccc(-c2cn3cc(F)cnc3n2)cc1NC(=O)c1c(F)cccc1C(F)(F)F` [FRF-02-175], the “TNF (Median)” value was 0.063, the Activity class entry was “B (medium activity—class B: 1%<TNF %≤15%)” and the “TNF % (Median)” value was determined as 1.43%.

Consider `COc1ccc(C(=O)Nc2cc(-c3cn4cc(F)cnc4n3)ccc2C)c(C)c1` [FRF-02-176], for which the “TNF (Median)” value is recorded as 0.087, the Activity class entry is listed as “B (medium activity—class B: 1%<TNF %≤15%)” and the “TNF % (Median)” value amounted to 3.81%.

Turning to `COc1ccc(C(=O)Nc2cc(-c3cn4cccnc4n3)ccc2C)c(C)c1` [FRF-02-182], the “TNF (Median)” value is on record as 0.008, the Activity class result is reported as “C (low activity—class C: TNF %≤1%)” and the “TNF % (Median)” value came out at 0.39%.

For the molecule `COc1ccc(C)c(C(=O)Nc2cc(-c3cn4cccnc4n3)ccc2C)c1` [FRF-02-183], the “TNF (Median)” value is listed as 0.008, the Activity class result was “C (low activity—class C: TNF %≤1%)” and the “TNF % (Median)” value was 0.77%.

For `COc1ccc(C)c(C(=O)Nc2cc(-c3cn4cc(F)cnc4n3)ccc2C)c1` [FRF-02-187], the “TNF (Median)” value was 1.191, the Activity class result was “A (high activity—class A: TNF %>15%)” and the “TNF % (Median)” value is on record as 31.32%.

For the molecule `Cc1ccc(-c2cn3cccnc3n2)cc1NC(=O)C(CO)c1ccccc1` (stereo not drawn) [FRF-02-193], the “TNF (Median)” value was 2.997, the Activity class result was “A (high activity—class A: TNF %>15%)” and the “TNF % (Median)” value was 91.73%.

Take `Cc1ccc(-c2cn3cc(F)cnc3n2)cc1NC(=O)C(CO)c1ccccc1` (stereo not drawn) [FRF-02-194]: the “TNF (Median)” value worked out at 0.008, the Activity class entry is recorded as “C (low activity—class C: TNF %≤1%)” and the “TNF % (Median)” value is 0.18%.

The record behind these values is US11673891B2, “Imidazopyrimidine compounds and uses thereof” (Dana-Farber Cancer Institute, Inc., priority 2017, dated 2023).
